Measured values from US20220089575A1, “FARNESOID X RECEPTOR AGONISTS AND USES THEREOF” (Metacrine, Inc., priority 2017, published 2022).

biological target: T1, hFXR (Homo sapiens, UniProt Q96RI1); experiment: In Vitro FXR Assay (TK): TK-ECRE-luc reporter in transfected CV-1 cells; format: cell-based; conditions: 18 hrs, luminescence, maximum efficacy of <25% of the Fexarmine control classified as '+'
T1 construct: expressed in transfected cells; host or cells: CV-1 cells
T1 sequence (Q96RI1 1-486): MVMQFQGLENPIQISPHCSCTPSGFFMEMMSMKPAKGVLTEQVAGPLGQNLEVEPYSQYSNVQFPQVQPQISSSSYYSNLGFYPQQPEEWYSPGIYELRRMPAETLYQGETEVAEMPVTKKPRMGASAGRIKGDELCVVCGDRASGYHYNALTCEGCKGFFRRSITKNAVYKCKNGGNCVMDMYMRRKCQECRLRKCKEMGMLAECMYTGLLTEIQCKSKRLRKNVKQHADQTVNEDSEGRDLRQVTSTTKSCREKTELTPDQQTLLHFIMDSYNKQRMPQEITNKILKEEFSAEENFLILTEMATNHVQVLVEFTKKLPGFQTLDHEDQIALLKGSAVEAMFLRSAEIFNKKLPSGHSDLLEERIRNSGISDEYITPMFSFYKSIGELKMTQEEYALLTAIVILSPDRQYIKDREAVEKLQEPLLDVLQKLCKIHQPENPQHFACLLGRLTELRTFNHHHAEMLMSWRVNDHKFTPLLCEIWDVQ
T1 sequence (P19793 1-462 partner): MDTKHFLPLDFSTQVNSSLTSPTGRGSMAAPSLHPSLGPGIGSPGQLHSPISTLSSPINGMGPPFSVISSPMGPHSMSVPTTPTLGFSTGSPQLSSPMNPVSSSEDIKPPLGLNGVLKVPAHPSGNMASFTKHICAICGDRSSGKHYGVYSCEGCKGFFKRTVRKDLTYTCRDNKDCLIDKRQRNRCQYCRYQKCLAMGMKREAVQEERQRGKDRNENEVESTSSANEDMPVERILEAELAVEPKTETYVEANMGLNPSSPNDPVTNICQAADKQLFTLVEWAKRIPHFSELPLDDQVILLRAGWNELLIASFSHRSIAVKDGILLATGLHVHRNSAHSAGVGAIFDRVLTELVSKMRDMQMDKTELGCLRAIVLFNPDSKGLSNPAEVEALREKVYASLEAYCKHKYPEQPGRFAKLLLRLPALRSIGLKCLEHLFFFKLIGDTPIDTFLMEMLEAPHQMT
In short: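 Reporter transactivation by hFXR was measured in CV-1 cells carrying hRXR and a TK-ECRE-luc construct, with compound treatment for 18 h before lysis and luminescence detection.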

Row | EC50 | Structure (SMILES)
1 | ≤ 250 nM | COc1ccc([C@H]2CC[C@H](CN(c3cccc(-c4cnn(C5CC5)c4)c3)C(=O)[C@H]3CC[C@H](OC(=O)NCCCN(C)C)CC3)CC2)cc1C [Compound 4.11, trans-4-((3-(1-Cyclopropyl-1H-pyrazol-4-yl)phenyl)((trans-4-(4-methoxy-3-methylphenyl)cyclohexyl)methyl)carbamoyl)cyclohexyl (3-(dimethylamino)propyl)carbamate]
2 | ≤ 250 nM | COc1ccc([C@H]2CC[C@H](CN(c3cccc(-c4cnn(C5CC5)c4)c3)C(=O)[C@H]3CC[C@H](OC(=O)N4CC(SC)C4)CC3)CC2)cc1C [Compound 6.30, trans-4-((3-(1-Cyclopropyl-1H-pyrazol-4-yl)phenyl)((trans-4-(4-methoxy-3-methylphenyl)cyclohexyl)methyl)carbamoyl)cyclohexyl 3-(methylthio) azetidine-1-carboxylate]
3 | ≤ 250 nM | CN(C)c1ccc([C@H]2CC[C@H](CN(c3cccc(-c4cnn(C5CC5)c4)c3)C(=O)[C@H]3CC[C@H](C(=O)O)CC3)CC2)cn1 [Compound 17.14, trans-4-((3-(1-Cyclopropyl-1H-pyrazol-4-yl)phenyl)((trans-4-(6-(dimethylamino)pyridin-3-yl)cyclohexyl)methyl)carbamoyl) cyclohexanecarboxylic acid]
4 | ≤ 250 nM | COc1ccc([C@H]2CC[C@H](CN(c3cccc(-c4cnn(C5CC5)c4)c3)C(=O)[C@H]3CC[C@H](OC(=O)NC[C@@H](O)CO)CC3)CC2)cc1C [Compound 6.13, trans-4-((3-(1-Cyclopropyl-1H-pyrazol-4-yl)phenyl)((trans-4-(4-methoxy-3-methylphenyl)cyclohexyl)methyl)carbamoyl)cyclohexyl ((R)-2,3-dihydroxypropyl)carbamate]
5 | ≤ 250 nM | CCOC(=O)C[C@H]1CC[C@H](C(=O)N(C[C@H]2CC[C@H](c3ccc(OC)c(C#N)n3)CC2)c2cc(-c3cnn(C(C)C)c3)ccn2)CC1 [Compound 18.22, Ethyl 2-(trans-4-(((trans-4-(6-cyano-5-methoxypyridin-2-yl)cyclohexyl)methyl)(4-(1-isopropyl-1H-pyrazol-4-yl)pyridin-2-yl)carbamoyl)cyclohexyl) acetate]
6 | ≤ 250 nM | COc1ccc(C23CCC(CN(c4cccc(-c5cnn(C6CC6)c5)c4)C(=O)[C@H]4CC[C@H](OC(=O)NCCO)CC4)(CC2)CC3)cc1C [Compound 4.04, 4-((3-(1-Cyclopropyl-1H-pyrazol-4-yl)phenyl)((4-(4-methoxy-3-methylphenyl)bicyclo[2.2.2]octan-1-yl)methyl)carbamoyl)cyclohexyl (2-hydroxyethyl)trans-carbamate]
7 | ≤ 250 nM | COc1ccc([C@H]2CC[C@H](CN(c3cccc(-c4cnn(C(C)C)c4)c3)C(=O)[C@H]3CC[C@H](CC(=O)O)CC3)CC2)nc1C [Compound 20.13, 2-(trans-4-((3-(1-Isopropyl-1H-pyrazol-4-yl)phenyl)((trans-4-(5-methoxy-6-methylpyridin-2-yl)cyclohexyl)methyl)carbamoyl)cyclohexyl)acetic acid]
8 | ≤ 250 nM | CNC(=O)O[C@H]1CC[C@H](C(=O)N(CC23CCC(c4ccc(N(C)C)nc4)(CC2)CC3)c2cccc(-c3cnn(C4CC4)c3)c2)CC1 [Compound 3.03, 4-((3-(1-Cyclopropyl-1H-pyrazol-4-yl)phenyl)((4-(6-(dimethylamino)pyridin-3-yl)bicyclo[2.2.2]octan-1-yl)methyl)carbamoyl)cyclohexyl trans-methylcarbamate]
9 | ≤ 250 nM | COc1ccc([C@H]2CC[C@H](CN(c3cccc(-c4cnn(C5CC5)c4)c3)C(=O)[C@H]3CC[C@H](C(=O)OC)CC3)CC2)cc1C [Compound 18.13, trans-Methyl 4-((3-(1-cyclopropyl-1H-pyrazol-4-yl)phenyl)((trans-4-(4-methoxy-3-methylphenyl)cyclohexyl)methyl)carbamoyl) cyclohexanecarboxylate]
10 | ≤ 250 nM | COc1ccc([C@H]2CC[C@H](CN(c3cccc(-c4cnn(C5CC5)c4)c3)C(=O)[C@H]3CC[C@H](OC(=O)N4CCN(C)CC4)CC3)CC2)cc1C [Compound 6.25, trans-4-((3-(1-Cyclopropyl-1H-pyrazol-4-yl)phenyl)((trans-4-(4-methoxy-3-methylphenyl)cyclohexyl)methyl)carbamoyl)cyclohexyl 4-methylpiperazine-1-carboxylate]
11 | ≤ 250 nM | COc1ccc([C@H]2CC[C@H](CN(c3cccc(-c4cnc(C5CC5)s4)c3)C(=O)[C@H]3CC[C@H](NC(=O)Cc4ncc[nH]4)CC3)CC2)cc1C [Compound 27.04, trans-4-(2-(1H-Imidazol-2-yl)acetamido)-N-(3-(2-cyclopropylthiazol-5-yl)phenyl)-N-((trans-4-(4-methoxy-3-methylphenyl)cyclohexyl)methyl)cyclohexanecarboxamide]
12 | ≤ 250 nM | CCC(O)C(C)NC(=O)O[C@H]1CC[C@H](C(=O)N(C[C@H]2CC[C@H](c3ccc(OC)c(C)n3)CC2)c2cc(-c3coc(C4CC4)n3)ccn2)CC1 (stereo partly drawn) [Compound 6.88, trans-4-((4-(2-Cyclopropyloxazol-4-yl)pyridin-2-yl)((trans-4-(5-methoxy-6-methylpyridin-2-yl)cyclohexyl)methyl)carbamoyl)cyclohexyl (3-hydroxypentan-2-yl)carbamate]
13 | ≤ 250 nM | COc1ccc([C@H]2CC[C@H](CN(c3cccc(-c4cnn(C(C)C)c4)c3)C(=O)[C@H]3CC[C@H](NC(=O)COC(C)=O)CC3)CC2)cc1C [Compound 26.11, 2-((trans-4-((3-(1-Isopropyl-1H-pyrazol-4-yl)phenyl)((trans-4-(4-methoxy-3-methylphenyl)cyclohexyl)methyl)carbamoyl)cyclohexyl)amino)-2-oxoethyl acetate]
14 | ≤ 250 nM | CNC(=O)O[C@H]1CC[C@H](C(=O)N(C[C@H]2CC[C@H](c3cnc(OC)c(C)c3)CC2)c2cc(-c3coc(C4CC4)n3)ccn2)CC1 [Compound 5.50, trans-4-((4-(2-Cyclopropyloxazol-4-yl)pyridine-2-yl)((trans-4-(6-methoxy-5-methylpyridin-3-yl)cyclohexyl)methyl)carbamoyl)cyclohexyl methylcarbamate]
15 | ≤ 250 nM | COc1ccc(C23CCC(CN(c4cccc(-c5cnn(C6CC6)c5)c4)C(=O)[C@H]4CC[C@H](C(=O)O)CC4)(CC2)CC3)cc1C [Compound 17.17, trans-4-((3-(1-Cyclopropyl-1H-pyrazol-4-yl)phenyl)((4-(4-methoxy-3-methylphenyl)bicyclo[2.2.2]octan-1-yl)methyl)carbamoyl) cyclohexanecarboxylic acid]
16 | ≤ 250 nM | COc1ccc([C@H]2CC[C@H](CN(c3cccc(-c4cnn(C5CC5)c4)c3)C(=O)[C@H]3CC[C@H](NC(C)=O)CC3)CC2)cc1C [Compound 26.01, trans-4-Acetamido-N-(3-(1-cyclopropyl-1H-pyrazol-4-yl)phenyl)-N-((trans-4-(4-methoxy-3-methylphenyl)cyclohexyl)methyl)cyclohexanecarboxamide]
17 | ≤ 250 nM | COCCNC(=O)O[C@H]1CC[C@H](C(=O)N(C[C@H]2CC[C@H](c3ccc(OC)c(C)n3)CC2)c2cc(-c3coc(C4CC4)n3)ccn2)CC1 [Compound 6.56, trans-4-((4-(2-Cyclopropyloxazol-4-yl)pyridine-2-yl)((trans-4-(5-methoxy-6-methylpyridin-2-yl)cyclohexyl)methyl)carbamoyl)cyclohexyl (2-methoxyethyl) carbamate]
18 | ≤ 250 nM | CCC1CN(C(=O)O[C@H]2CC[C@H](C(=O)N(C[C@H]3CC[C@H](c4ccc(OC)c(C)n4)CC3)c3cc(-c4coc(C5CC5)n4)ccn3)CC2)C1 [Compound 7.90, trans-4-((4-(2-Cyclopropyloxazol-4-yl)pyridine-2-yl)((trans-4-(5-methoxy-6-methylpyridin-2-yl)cyclohexyl)methyl)carbamoyl)cyclohexyl 3-ethylazetidine-1-carboxylate]
19 | ≥ 1000 nM | COc1ccc([C@H]2CC[C@H](CN(c3cccc(-c4cnn(C5CC5)c4)c3)C(=O)[C@H]3CC[C@H](NC(=O)CNS(C)(=O)=O)CC3)CC2)cc1C [Compound 31.03, trans-N-(3-(1-Cyclopropyl-1H-pyrazol-4-yl)phenyl)-N-((trans-4-(4-methoxy-3-methylphenyl)cyclohexyl)methyl)-4-(2-(methylsulfonamido)acetamido) cyclohexane carboxamide]
20 | ≤ 250 nM | CNC(=O)O[C@H]1CC[C@H](C(=O)N(CC23CCC(c4ccc(N(C)C)nc4)(CC2)CC3)c2cccc(-c3coc(C4CC4)n3)c2)CC1 [Compound 3, 4-((3-(2-Cyclopropyloxazol-4-yl)phenyl)((4-(6-(dimethylamino)pyridin-3-yl)bicyclo[2.2.2]octan-1-yl)methyl)carbamoyl)cyclohexyl trans-methylcarbamate]
